Test results taken from ChEMBL document CHEMBL4689842, “EUbOPEN Chemogenomics Library wave 1” (2021).

How the values were obtained:
Fibroblast = test: Incucyte cell viability with human fibroblast; assay type: toxicity, cell-based; details: 10 µM, compound concentration 10 uM
U2OS = test: Incucyte cell viability with U2OS; assay type: toxicity, cell-based; details: human, 10 µM, compound concentration 10 uM
[1] = 0 h, replicate number 1, timepoint 0 hours
[2] = 6 h, replicate number 1, timepoint 6 hours
[3] = 12 h, replicate number 1, timepoint 12 hours
[4] = 12 h, replicate number 2, timepoint 12 hours
[5] = 18 h, replicate number 1, timepoint 18 hours
[6] = 24 h, replicate number 1, timepoint 24 hours
[7] = 0 h, replicate number 2, timepoint 0 hours
[8] = 6 h, replicate number 2, timepoint 6 hours
[9] = 24 h, replicate number 2, timepoint 24 hours
[10] = 18 h, replicate number 2, timepoint 18 hours
Also: filed as whole numbers so only -1 and 0 and 1 occur.

SMILES | Growth Rate (Fibroblast; [1]) | Growth Rate (Fibroblast; [2]) | Growth Rate (Fibroblast; [3]) | Growth Rate (Fibroblast; [4]) | Growth Rate (Fibroblast; [5]) | Growth Rate (Fibroblast; [6]) | Growth Rate (U2OS; [7]) | Growth Rate (U2OS; [8]) | Growth Rate (U2OS; [3]) | Growth Rate (U2OS; [4]) | Growth Rate (U2OS; [5]) | Growth Rate (U2OS; [6]) | Growth Rate (U2OS; [9]) | Growth Rate (U2OS; [1]) | Growth Rate (U2OS; [2]) | Growth Rate (U2OS; [10]) | Growth Rate (Fibroblast; [10]) | Growth Rate (Fibroblast; [9]) | Growth Rate (Fibroblast; [8]) | Growth Rate (Fibroblast; [7])
C#Cc1cccc(Nc2ncnc3cc(OCCOC)c(OCCOC)cc23)c1 [ERLOTINIB] | 0 | 0 | 0 | 1 | 0 | 0 | 1 | 0 | 1 | 0 | 0 | 1 | 0 | – | – | – | – | – | – | –
CC(C)NC(=O)N1CC[C@H](NC2=Nc3cc(F)ccc3N(CC(F)F)c3ccc(Cl)cc32)C1 | – | 0 | 0 | – | 0 | 0 | – | 1 | 0 | 1 | 0 | 0 | – | 0 | 0 | 1 | – | – | – | –
CCc1ccc(OCc2ccccc2C(=O)Nc2ccc3nc(C)cc(N)c3c2)cc1.Cl | 0 | 0 | 0 | – | 0 | 0 | – | – | 0 | – | 0 | 0 | – | 0 | 0 | – | – | – | – | –
COC(=O)C1=C(C)NC(C)=C(C(=O)OCCCN2CCC(c3ccccc3)(c3ccccc3)CC2)[C@H]1c1cccc([N+](=O)[O-])c1 [NIGULDIPINE] | 0 | 0 | 0 | – | 0 | 0 | – | 0 | 0 | – | 0 | 0 | – | 0 | – | – | 1 | 1 | – | –
COc1cc(Nc2nccc(-c3cnn4nc(OC)ccc34)n2)cc(C(F)(F)F)c1 | – | 0 | 0 | – | 0 | 0 | 0 | – | 0 | – | 0 | 0 | – | 1 | 0 | – | – | – | – | –
CC(C)Oc1ccccc1C(=O)Nc1ccccc1C(=O)Nc1cccc(S(=O)(=O)C(F)(F)F)c1 | 0 | – | – | – | – | 1 | – | – | – | – | 1 | 1 | – | 0 | – | – | – | – | – | –
Cl.O=C(O)c1cc(-c2ccc(C3CCNCC3)cc2)c2ccc(-c3ccc(C(F)(F)F)cc3)cc2c1 | 0 | – | 1 | 0 | 1 | 1 | 0 | – | 0 | – | 0 | 0 | – | 1 | 0 | – | 0 | 0 | 0 | –
COc1ccccc1CN[C@H]1C2CCN(CC2)[C@H]1C(c1ccccc1)c1ccccc1 [CP-96345] | 0 | – | 1 | 0 | 1 | 1 | – | 1 | 1 | – | 1 | 1 | – | 0 | – | – | 0 | 0 | 0 | –
COc1cc2ncn(-c3cc(OCc4ccccc4C(F)(F)F)c(C(N)=O)s3)c2cc1OC [GW843682X] | 0 | 1 | 0 | – | 0 | 0 | 0 | – | 1 | 0 | 0 | 0 | – | – | – | – | – | – | – | –
CNCc1ccccc1-c1csc([C@@H](C)Nc2nc(C)nc3cc(OC)c(OC)cc23)c1 [BAY-293] | – | 0 | 0 | – | 0 | 0 | – | 1 | 0 | – | 0 | 0 | – | 0 | 0 | – | – | – | – | –
CC1=C(C(=O)Nc2cc3cn[nH]c3cc2F)C(c2ccc(C(F)(F)F)cc2)CC(=O)N1 (centres undefined) | 0 | – | – | – | – | 1 | – | – | – | – | 1 | 1 | – | – | – | – | – | – | – | –
Cc1cc(C)c(-n2ccn3nc(-c4cccnc4)cc23)cc1NC(=O)c1cc(C#N)cc(S(F)(F)(F)(F)F)c1 [BAY-826] | 0 | 1 | 1 | – | 1 | 1 | 0 | – | 0 | – | 0 | 0 | – | – | 1 | – | – | – | – | –
CC(C)CC(=O)Nc1[nH]nc2c1CN(C(=O)C1CCN(C)CC1)C2(C)C [PHA-793887] | 0 | 0 | 0 | – | 0 | 0 | 0 | – | 0 | – | 0 | 0 | – | 1 | 0 | – | – | – | – | –
Cc1cc(NC(=O)c2cccc(S(F)(F)(F)(F)F)c2)cc(-n2ccn3nc(-c4cccnc4)cc23)c1 [BAY-309] | 1 | 0 | 0 | – | 0 | 0 | 0 | – | 0 | – | 0 | 0 | – | – | 0 | – | – | – | – | –
CN(c1ccccc1CNc1nc(Nc2ccc3c(c2)CC(=O)N3)ncc1C(F)(F)F)S(C)(=O)=O | 1 | – | 1 | – | 0 | 0 | – | – | 0 | – | 0 | 0 | – | 0 | 0 | – | 1 | – | – | 0
O=c1[nH]c2ccccc2n1C1CCN(Cc2ccc(-c3[nH]c4cc5ncnc5cc4nc3-c3ccccc3)cc2)CC1 | – | – | 1 | – | 0 | 0 | – | – | 0 | 1 | 0 | 0 | 1 | 0 | – | 1 | – | – | – | 0
CC(C)(C)NC[C@H](O)COc1nsnc1N1CCOCC1 [TIMOLOL] | 0 | 1 | 1 | 0 | 1 | 1 | – | 1 | – | 1 | 1 | 1 | – | 0 | – | – | 0 | 0 | 0 | 1
O=c1cc(N2CCOCC2)oc2c(-c3cccc4c3sc3ccccc34)cccc12 | – | 0 | 0 | – | 0 | 0 | – | 1 | 0 | 1 | 0 | 0 | – | 0 | 0 | – | 1 | 1 | – | 0
CN1CCN(Cc2ccc(Nc3ncc(Cl)c(Nc4ccccc4S(=O)(=O)N(C)C)n3)cc2)CC1 [DUBERMATINIB] | 0 | – | 1 | 0 | 0 | 0 | – | – | 0 | – | 0 | 0 | – | 0 | 1 | – | – | – | – | –
CCc1nn(CCCN2CCN(c3cccc(Cl)c3)CC2)c(=O)n1CCOc1ccccc1.Cl [NEFAZODONE HYDROCHLORIDE] | 0 | 0 | 0 | – | 0 | 0 | – | – | 0 | – | 1 | 0 | – | – | 1 | 0 | – | – | – | –
CNC(=O)c1ccc(Nc2ncc(C(F)(F)F)c(NCc3nccnc3N(C)S(C)(=O)=O)n2)cc1 [DEFACTINIB] | 0 | – | 0 | 1 | 0 | 0 | 1 | 0 | 0 | – | 0 | 0 | – | 0 | 1 | – | – | – | 1 | 1
CN1CCN(Cc2cc(NC(=O)c3ccc4c(c3)CN(c3ccccc3)CC4)cc(C(F)(F)F)c2)CC1 | – | 0 | 0 | – | 0 | 0 | 0 | 1 | 0 | – | 0 | 0 | – | 1 | 0 | – | – | – | – | 1
CNC(=O)Nc1ccc2c(c1)[C@@]1(CC2)OC(=O)N(CC(=O)N(Cc2ccc(F)cc2)[C@@H](C)C(F)(F)F)C1=O [A-486] | – | 0 | 0 | 1 | 0 | 0 | – | – | 0 | 1 | 0 | 0 | 1 | 0 | 0 | – | 1 | – | – | 0
CNC(=O)Nc1ccc(-c2nc(N3CC4CCC(C3)O4)c3cnn(C4CCC5(CC4)OCCO5)c3n2)cc1 | 1 | 0 | 0 | – | 0 | 0 | 0 | – | 0 | – | 0 | 0 | 1 | – | 1 | 1 | – | – | – | 0
CC(C)c1noc(N2CCC(COc3ccc(-c4ccc(S(C)(=O)=O)cc4)nc3)CC2)n1 [GSK-1292263] | 0 | 0 | 0 | – | 0 | 0 | – | – | – | 1 | 1 | 1 | – | 0 | – | – | – | – | – | –
CCCSc1nc(N[C@@H]2C[C@H]2c2ccc(F)c(F)c2)c2nnn([C@@H]3C[C@H](OCCO)[C@@H](O)[C@H]3O)c2n1 [TICAGRELOR] | 0 | 0 | 0 | – | 0 | 0 | – | – | 0 | – | 0 | 0 | – | 0 | 0 | – | – | – | – | –
C=CC(=O)Nc1cccc(Oc2nc(Nc3ccc(N4CCN(C)CC4)cc3OC)ncc2Cl)c1 | – | 0 | 0 | – | 0 | 0 | – | – | 0 | – | 0 | 0 | – | 0 | 0 | – | – | – | – | –
Cc1nc(N2CC[C@H](O)C2)ncc1-c1cc(C(F)(F)F)cc2[nH]ncc12 | 0 | 1 | 0 | – | 0 | 0 | – | 1 | 1 | – | 0 | 0 | – | 1 | 0 | 1 | – | – | 0 | –
